1 molecule from patent US10980788B2, “Therapy for treating malignancies” (Agios Pharmaceuticals, Inc., priority 2018, dated 2021) can be followed below.

SMILES strings stand for the structures. Like-named read-outs stand apart in the source and are kept apart here.

The nature of data set [1]: Food effect on pharmacokinetics of COMPOUND 1 in healthy subjects (phase 1, open-label, randomized, two-period crossover). The settings on record: for Tmax / half-life / AUC(0-inf) / AUC(0-t) / Cmax: plasma, single oral dose 500 mg. It is filed as in vivo, human. As for the experimental part: The food effect on COMPOUND 1 PK following administration of a single oral dose of 500 mg of COMPOUND 1 in healthy subjects aged 18-55 years was evaluated in a was a phase 1, open-label, randomized, two-period crossover study.
The study was conducted according to the United States Food and Drug Administration (FDA) 2002 Guidance for Industry “Food-Effect Bioavailability and Fed Bioequivalence Studies”.
Treatments A and B, each comprising a single oral dose of 500 mg of COMPOUND 1, were administered as shown in Table 1. • A (fasted): two 250 mg tablets administered after an overnight fast (approximately 10 hr). • B (fed): two 250 mg tablets administered after a standardized high-fat breakfast, consumed within 30 minutes prior to COMPOUND 1 dosing.
The standardized FDA high-fat content meal contains the equivalent of ˜150 protein calories, ˜250 carbohydrate calories, and ˜500-600 fat calories, and comprises two eggs fried in butter, two strips of bacon, two slices of toast with butter, four ounces of hash brown potatoes (fried with butter), and eight ounces (240 mL) of whole milk.
Of the 30 subjects enrolled, 15 were randomized to sequence AB and 15 were randomized to sequence BA.
Blood samples for the analysis of COMPOUND 1 concentrations were collected predose and 0.5, 1, 2, 3, 4, 6, 9, 12, 24, 48, 72, 120, 168, 240, 336, and 504 hr postdose. Plasma concentrations of COMPOUND 1 were determined using a validated liquid chromatography with tandem mass spectrometry method. PK parameters were calculated using WinNonlin (Pharsight Corporation, Version 6.2.1). Linear mixed model analysis was performed on natural logarithm (In) transformed maximum observed concentration (Cmax), area under the concentration-time curve from Hour 0 to the last measurable concentration (AUC0-t), and area under the concentration-time curve extrapolated to infinity (AUC0-∞). The analyses were performed using the SAS MIXED procedure. […] Inter-subject variability was determined using the geometric coefficient of variation percent (CV %).

Data set [2] in a line: Safety and tolerability of a single oral dose of 500 mg COMPOUND 1 in healthy subjects. It is filed as in vivo, human. The settings on record: single oral dose of 500 mg, fed and fasted conditions. As for the experimental part:
Safety and tolerability were also evaluated for a single oral dose of 500 mg of COMPOUND 1.
Incidence of adverse events and serious adverse events was assessed.

Setting [3] is: fed condition (test) versus fasted condition (reference), 500 mg, n = 27.
Setting [4] is: high-fat meal compared with fasted condition, 500 mg single oral dose.
Setting [5] is: human, po, 500 mg, fasted, n = 29, geometric mean.
Setting [6] is: human, po, 500 mg, fed (high-fat meal), n = 27, geometric mean.

As a reminder, the half-life is the time in which the quantity being followed falls by half. Low readings indicate rapid decline, high ones slow decline. Take `N#Cc1ccnc(N2C(=O)CC[C@H]2C(=O)N(c2cncc(F)c2)[C@H](C(=O)NC2CC(F)(F)C2)c2ccccc2Cl)c1` [COMPOUND 1, (S)—N—((S)-1-(2-chlorophenyl)-2-((3,3-difluorocyclobutyl)amino)-2-oxoethyl)-1-(4-cyanopyridin-2-yl)-N-(5-fluoropyridin-3-yl)-5-oxopyrrolidine-2-carboxamide]: in data set [1] (setting [3]), the “Geometric mean ratio (%) AUC0-t” value was found to be 125.6%, the “Geometric mean ratio (%) AUC0-∞” value amounted to 124.3% and the “Geometric mean ratio (%) Cmax” value is recorded as 197.8%. Moreover, in data set [1] (setting [4]), the “Increase in extent of exposure as assessed by AUC0-t” value was 25.6%, the “Increase in extent of exposure as assessed by AUC0-∞” value amounted to 24.3% and the “Increase in mean Cmax” value is on record as around 2 fold. In data set [1] (high-fat meal prior to dosing compared with fasted, 500 mg single oral dose), the “Increase in AUC” value is given as around 25%. In addition, the Tmax in data set [1] (human, po, 500 mg, fasted, n = 29, median, read-out: Tmax) came out at 3 h. Further, the Tmax in data set [1] (human, po, 500 mg, fed (high-fat meal), n = 27, median, read-out: Tmax) turned out to be 3 h. This molecule showed a half-life in data set [1] (human, po, 500 mg, fasted, n = 29, arithmetic mean) of 2.31 days. In data set [1] (setting [5]), this molecule displayed an AUC(0-inf) of 143 µg·h/mL, an AUC(0-t) of 136 µg·h/mL and a Cmax of 2270 ng/mL. In data set [1] (human, po, 500 mg, fed (high-fat meal), n = 27, arithmetic mean), this molecule showed a half-life of 2.22 days. In data set [1] (setting [6]), the AUC(0-inf) was 174 µg·h/mL, the AUC(0-t) came to 166 µg·h/mL and the Cmax turned out to be 4490 ng/mL. In addition, in data set [1] (fasted, n = 29, median), the Tmax came to 3.03 h. Besides, in data set [2], the Safety and tolerability result was “safe and well tolerated”.
